“Also recorded” adds a separate entry of the source.
How the values were obtained:
[1] = target: T1, retinol-RBP-TTR complex (Homo sapiens, UniProt P02753); experiment: High-throughput FRET assay for detection of RBP/TTR interaction (Alexa430-TTR); format: binding; conditions: for inhibition of RBP-TTR interaction in high throughput assay: 384-well format, varied concentrations 0-4 μM, conditions of Example 7
T1 construct: purchased Sigma Chemical Co. (TTR only)
Source text: Reduction of serum retinol and RBP are correlated with concomitant reductions in toxic lipofliscin fluorophores. Because compounds that affect RBP-TTR interaction will directly affect fluorophore levels in the eye, a high-throughput screen for small molecules which prevent interaction of RBP with TTR was developed. This screen employs probe-labeled forms of RBP and TTR which participate in a unique fluorescence resonance energy transfer (FRET) event when complexed. Compounds which interfere with RBP-TTR interaction prevent FRET. […] The sample is incubated at 37° C. for 30 min and then illuminated with 330 nm light. The emission spectra are shown in the range of 400-600 nm. HPR binds to RBP and prevents interaction with TTR, and here this property of HPR is utilized here to validate the ability of this screen to detect inhibition of RBP-TTR interaction. […] Additionally, the design of this assay permits discrimination between compounds which interact with RBP versus those which interact with TTR. Thus, by using two distinct excitation energies (280 nm and 330 nm, for protein and retinol, respectively) and implementing simultaneous monitoring of the retinol and TTR-probe fluorescence, the “target” of a presumptive small molecule can be easily determined.
In order to facilitate screening of large numbers of test compounds, the RBP-TTR assay has been adapted to a 384-well plate format. This transition required re-evaluation of the reagent concentrations and minimal assay volume for maintaining solubility and detection sensitivity. Under the 384-well plate format, the assay can be efficiently performed in a 50 μl volume using 0.5 μM apo-RBP, 0.5 μM TTR, 2-8 μM test compound and 1 μM retinol. The microplate with minimal fluorescence background, best optical clarity and most appropriate well design was determined to be Corning's model #3711.
Accordingly, HPR was employed at varied concentrations (from 0-4 μM), using the conditions specified in Example 7, to evaluate the high throughput assay.
The mechanism of action underlying this effect can be explained by the disruption of RBP-TTR interactions. In order to explore this possibility and to further validate the RBP-TTR screen, the effects of all-trans retinoic and 13-cis retinoic acid, using the conditions the conditions specified for analysis of HPR, were examined.

[2] = test system: serum retinol and RBP; conditions: cited from earlier work; for reduction in circulating RBP and circulating retinol in vivo: literature (several investigators; Berni et al. 1993)
[3] = target: T2, LRAT (Homo sapiens, UniProt O95237); experiment: In vitro analyses of LRAT activity; format: biochemical; conditions: HPR pre-incubated with enzyme source material
T2 sequence (O95237 1-230): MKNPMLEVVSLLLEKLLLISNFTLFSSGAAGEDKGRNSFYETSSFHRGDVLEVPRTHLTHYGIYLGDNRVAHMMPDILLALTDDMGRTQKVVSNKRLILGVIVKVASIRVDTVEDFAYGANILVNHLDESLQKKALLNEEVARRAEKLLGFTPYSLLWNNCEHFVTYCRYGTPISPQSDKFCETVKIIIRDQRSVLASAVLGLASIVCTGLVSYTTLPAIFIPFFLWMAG

[4] = HPR administered to wild type mice for 5 days, illumination, then retinoids in serum and ocular tissue; format: in vivo; conditions: mouse, ocular tissue, ip, 20 mg/kg i.p. in DMSO, read-out: HPR accumulation within ocular tissues during the treatment period
Method: In order to ensure that the observed effects of HPR in ABCA4 null mice were not due to the genetic mutation, HPR (20 mg/kg, i.p. in DMSO) was administered to wild type mice for 5 days. Control mice received only the DMSO vehicle. On the final day of HPR treatment, the mice were exposed to constant illumination (1000 lux for 10 min) order “stimulate” the visual cycle to generate visual chromophore. Immediately following the illumination period, the animals were sacrificed and the concentrations of retinoids in serum and ocular tissue were determined. […] As in the previous study, HPR caused a significant reduction in serum retinol (˜55%), ocular retinol (˜40%) and ocular retinal (˜30%). Although HPR did accumulate within ocular tissues during the treatment period (˜5 μM), no effect on LRAT or Rpe65/isomerase activities was observed.

[5] = test system: ABCA4 null mutant mice; experiment: HPR administered to ABCA4 null mutant mice for 28 days; serum retinol, ocular retinoids and A2E; format: in vivo
Method: In order to further explore the role of HPR in the visual cycle, the in vivo effects of HPR in mice have been examined. Thus, HPR was administered to ABCA4 null mutant mice (5-20 mg/kg, i.p. in DMSO) for periods of 28 days. Control mice received only the DMSO vehicle. At the end of the treatment period, the concentrations of retinol and HPR in serum and retinoid content in ocular tissues was measured. […] Thus, the calculated percent reduction for each of the measured retinoids, and A2E, was nearly identical (see FIG. 6). […] If systemically-administered HPR inhibits ocular LRAT, then reduction of ocular retinoids and A2E should exceed the reduction in serum retinol.
Genetic crosses of RBP4^−/− mice with ABCA4^−/− mice was undertaken to examine the role of RBP in mediation of retinol levels in serum and ocular tissue.

[6] = target: RBP-TTR interaction (Homo sapiens, UniProt P02753); conditions: literature (Malpeli et al.; Holven et al.; Radu et al.); cited from earlier work
[7] = 5-20 mg/kg i.p. in DMSO, 28 days

CC1=C(/C=C/C(C)=C/C=C/C(C)=C\C(=O)O)C(C)(C)CCC1 [13-cis retinoic acid, 13-cis-retinoic acid]
inhibition of RBP-TTR interaction in high throughput assay [1]: entirely consistent with the in vivo data | reduction in circulating RBP and circulating retinol in vivo [2]: observed in vivo

CC1=C(/C=C/C(C)=C/C=C/C(C)=C/C(=O)Nc2ccc(O)cc2)C(C)(C)CCC1 [HPR, N-(4-hydroxyphenyl)retinamide]
retinol and TTR-probe fluorescence (loss of complexation) ([1]; 1 μM HPR, 0.5 μM unlabeled RBP + 0.5 μM Alexa430-TTR, 37° C., 30 min, 330 nm excitation): significantly reduced | inhibition of RBP-TTR interaction in high throughput assay [1]: inhibit RBP-TTR interaction | LRAT activity in vitro [3]: inhibition of LRAT activity | reductions in serum retinol and RBP ([2]; literature (Formelli et al.; Torrisi et al.)): profound reductions | reduction in circulating RBP and circulating retinol in vivo [2]: established in vivo | concentration at 5 days [4]: ~5 µM | reductions in A2E [5, 7]: commensurate reductions | reductions in ocular retinoids [5, 7]: commensurate reductions | reductions in serum retinol as a function of increasing serum HPR [5, 7]: Profound reductions | effect on visual cycle proteins (e.g., LRAT) when administered systemically ([5]; systemic administration): limited effect | interaction of TTR with RBP in vitro [6]: interferes with the normal interaction of TTR with RBP; also recorded: effective inhibitor

CC1=C(/C=C/C(C)=C/C=C/C(C)=C/C(=O)O)C(C)(C)CCC1 [all-trans retinoic acid, all-trans-retinoic acid]
inhibition of RBP-TTR interaction in high throughput assay [1]: entirely consistent with the in vivo data | reduction in circulating RBP and circulating retinol in vivo [2]: observed in vivo

Reference: US7432307B2, “Modulators of retinol-retinol binding protein (RBP)-transthyretin (TTR) complex formation” (Sirion Therapeutics, Inc., priority 2004, dated 2008)
